For assay [1], the system named is isolated whole rat heart. The assay can be described thus: Myocardial necrosis (size of infarctus, TTC dye) of isolated rat heart after cold ischemia-reperfusion. Particulars: 1 μM in Celsior solution, 8 h cold ischemia at 4° C. then reperfusion.
Procedure: The rats were anesthetized by intraperitoneal injection of sodium pentobarbital (50 milligrams per kilogram (mg/kg)). They were then placed in dorsal decubitus. After isolating the femoral vein, heparin was administered intravenously (200 IU/kg). An abdominal incision was made, followed by a thoracic incision. The sternum was pulled towards the rat's head, using a clamp, and the diaphragm was dissected. The heart isolated from its pericardium was excised and stopped in the hypothermic Celsior solution. […] The hearts were then placed at 4° C. in the same solution for 8 h (the cold ischemia stage), prior to reperfusion (the reanimation stage). After 8 h of cold ischemia, each heart was fastened by its aorta to a cannula for continuous retrograde perfusion using Krebs Henseleit (KH, having the following composition in mM: glucose 11.0; NaCl 118.5: KCl 4.75; MgSO4 1.19, KH2PO4 1.2; NaHCO3 24.0; CaCl2 1.4). A constant pressure of 100 centimeters (cm) of H2O (corresponding to 74 millimeters of mercury (mmHg)) was imposed. […] For each slice, the ratio AN/AR was expressed as a percentage, representing the size of the infarctus. The sum of the infarctuses in all of the sections belonging to the same left ventricle gave the quantity of necrosis for the heart in question. […] At the end of cold ischemia, the hearts were reperfused and the size of infarctus was analyzed histologically after using TTC dye.
A further assay relates to H9c2 cardiomyocytes. The assay can be described thus: MTT viability of H9c2 cardiomyocytes after cold ischemia-reperfusion. Format: cell-based, rat. The procedure: This was a conventional model for culturing rat cardiomyocytes. The H9c2 cardiac cells (ATTC®) came from rat heart ventricles transfected with a pSV3 plasmid containing the SV40 gene. The cells were cultivated in high glucose Dulbecco's modified Eagle's medium (DMEM) (PAA®), with an additional 10% of Mycoplex FBS (PAA®) and 1% penicillin-streptomycin. The medium was changed every two days and re-seeding was performed at 70%-80% confluence.
(§1) MTT, or […] (Sigma), is a molecule that bonds to mitochondrial dehydrogenases (DH) in the presence of oxidized nicotimamide adenine dinucleotide and nicotimamide adenine dinucleotide phosphate (NAD+ and NADP+) coenzymes to form insoluble formazan crystals of violet color. The resulting violet color is evidence of mitochrondrial function and thus of cell viability. The crystals were dissolved in a permeabilization solution (dimethyl sulfoxide or DMSO, Sigma). This solubilization of formazan also gives rise to cell lysis. The plates were read by spectrophotometry (Multiskan Ex, Thermo, Electron Corporation®) at 550 nanometers (nm).
(§2) The purpose of this protocol was to determine the potentially protective effect of cyclosporin and/or taxol on cardiomyocytes placed in a cold ischemia situation at 4° C. for 24 hours (h), followed by reperfusion for 24 h, at the end of which the viability test (the MTT test) was performed. A “sham” group was not subjected to the ischemia—reperfusion sequence. At each of the doses tested, four different experiments were performed, and during each experiment, eight different cell wells were tested simultaneously.
(§3) Statistical analysis consisted in comparing means (Student's test between the group under study and the control group).
The viability of primary cardiomyocytes was evaluated after 24 h of cold ischemia and 24 h of reperfusion.
As before, the viability of H9c2 cardiomyocytes was evaluated after 24 h cold ischemia and 24 h reperfusion.

Assay [2] concerns isolated whole rat heart. The assay can be described thus: Functional recovery (LVDevP×HR) of perfused isolated rat heart (Langendorff mode) after cold ischemia-reperfusion. To be noted: 1 μM in Celsior solution; 8 h cold ischemia at 4° C. + 1 h reperfusion at 37° C.; p<0.01.
Procedure: The rats were anesthetized by intraperitoneal injection of sodium pentobarbital (50 milligrams per kilogram (mg/kg)). They were then placed in dorsal decubitus. After isolating the femoral vein, heparin was administered intravenously (200 IU/kg). An abdominal incision was made, followed by a thoracic incision. The sternum was pulled towards the rat's head, using a clamp, and the diaphragm was dissected. The heart isolated from its pericardium was excised and stopped in the hypothermic Celsior solution. […] The hearts were then placed at 4° C. in the same solution for 8 h (the cold ischemia stage), prior to reperfusion (the reanimation stage).
After 8 h of cold ischemia, each heart was fastened by its aorta to a cannula for continuous retrograde perfusion using Krebs Henseleit (KH, having the following composition in mM: glucose 11.0; NaCl 118.5: KCl 4.75; MgSO4 1.19, KH2PO4 1.2; NaHCO3 24.0; CaCl2 1.4). A constant pressure of 100 centimeters (cm) of H2O (corresponding to 74 millimeters of mercury (mmHg)) was imposed. The KH solution was bubbled continuously with 95% O2+5% CO2, in order to maintain its pH at 7.4.
A latex balloon was installed in the left ventricle and connected to a pressure sensor previously calibrated by internal calibration (0 to 200 mmHg). At the beginning of reperfusion, the balloon was inflated in order to obtain a telediastolic pressure of about 5 mmHg. […]
For assay [3], the system named is rat primary cardiomyocytes. The assay can be described thus: MTT viability of rat primary cardiomyocytes after cold ischemia-reperfusion. Format: cell-based. The procedure:
as §1, §2, §3

[4] abbreviates: 1 μM, 5 μM and 10 μM in MM, 24 h cold ischemia + 24 h reperfusion.
The mark [5] stands for this setting: tested 0.25-10 μM in St. Thomas basal solution, 24 h cold ischemia + 24 h reperfusion.

In the case of `CC(=O)O[C@H]1C(=O)[C@@]2(C)[C@H]([C@H](OC(=O)c3ccccc3)[C@]3(O)C[C@H](OC(=O)[C@H](O)[C@@H](NC(=O)c4ccccc4)c4ccccc4)C(C)=C1C3(C)C)[C@]1(OC(C)=O)CO[C@@H]1C[C@@H]2O` [taxol, paclitaxel], the “size of infarctus (AN/AR), % of the zone at risk” value in the assay on isolated whole rat heart [1] stood at 8.7%. In addition, the “cardioprotective effect when added singly to LYPS, relative to "MM" reference group” value (in the assay with H9c2 cardiomyocytes (setting [4]); in assay [3] (setting [4])) was “adds nothing in terms of cardioprotective effect” in each case. The “cardiomyocyte viability increased (MTT) relative to control group” value was “about 90%” in the assay on H9c2 cardiomyocytes (agent at optimum concentration around 1 μM in St. Thomas basal solution, 24 h cold ischemia at 4° C. + 24 h reperfusion, p<0.001) and “about 25%” in assay [3] (agent at optimum concentration around 1 μM in St. Thomas basal solution, 24 h cold ischemia at 4° C. + 24 h reperfusion, p<0.01). Also, the “optimum concentration for increasing cardiomyocyte viability” value (with H9c2 cardiomyocytes (setting [5]); in assay [3] (setting [5])) was “around 1 μM” each time. In the assay with isolated whole rat heart [2], the “improvement in LVDevP×HR compared with the control group” value amounted to 25%.

Source of the values: US10440947B2, “Aqueous solution for preserving an organ and uses during hypothermic ischemia” (UNIVERSITE CLAUDE BERNARD LYON I, priority 2013, dated 2019).
